Test results as given in US12606561B2, “Substituted pyrazolo[1,5-a][1,3,5]triazines as CDK inhibitors” (QURIENT CO., LTD., priority 2018, dated 2026).
Each block holds one compound with its values, some of them ahead of it.

What was measured:
[1] = molecular target: T1, CDK7/Cyclin H/MNAT1 (Homo sapiens, UniProt P50613); test: Enzymatic assay for CDK7 (LANCE Ultra kinase assay, FRET based); type: biochemical; conditions: for IC50: ATP at Km
T1 construct: purchased Invitrogen PR6749B
Method in brief: (§1)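 Purified CDK–cyclin enzyme, ATP at Km; ULight peptide substrate; TR-FRET via Eu anti-phospho-Ab; inhibition scored.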

[2] = molecular target: T2, CDK5/p25 (Homo sapiens, UniProt Q00535); test: Enzymatic assay for CDK5 (LANCE Ultra kinase assay, FRET based); type: biochemical; conditions: ATP at Km
T2 construct: purchased Invitrogen PR8543B
Method in brief: (§2)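 Compounds tested as 8 doses in 4-fold steps against CDK2/Cyclin A ([…]) or CDK5/p25 ([…]), with ATP at its Km and 68 nM ULight-MBP substrate. After 60 min at 23° C., EDTA plus Eu-labelled anti-phospho-MBP added; TR-FRET (615/665 nm) read after another 60 min.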

[3] = tested on: MV4-11; test: Cellular MV4-11 viability assay (CellTiter-Glo, 72 hours); type: cell-based; conditions: Homo sapiens; MV4-11 cells
Protocol: Human […] cell line, MV4-11_(ATCC, Cat #CRL-9591), NSCLC (Non-small cell lung cancer) cell line H460 (ATCC, Cat #HTB-177), A2780 (ECACC, Cat #93112519) and OVCAR-3(ATCC, Cat #HTB-161) were obtained from ATCC. Cells were grown in RPMI-1640 media (Invitrogen, Cat #22400-089) supplemented with 10% FBS (Invitrogen, Cat #10099141) and 1% penicillin/streptomycin (Invitrogen, Cat #15070063) and cultured at 37° C., 5% CO2 in a humidified chamber. All cell lines were routinely tested for mycoplasma.
To effect of the CDK7 inhibitor to inhibit the growth of target cancer cells, viability assay were conducted a 72 hour time period. Briefly, the candidate cell line was plated in 96 well plate at the following density of cells respectively. 1×10^4 cells/well for MV4-11, 5×10^3 for H460 and OVCAR-3, and 1×10^3 for A2780. After 24 hours, the cells were treated with various concentrations of the compound (ranging from 0.0015 uM to 10 uM). DMSO solvent without compound served as a control and final DMSO concentration lest than 0.1%. After 72 hours of incubation at 37° C., 5% CO2 incubator, cells were analyzed for the viability using the CellTiter-Glo Luminescent Cell Viability Assay (Promega, Cat #G7570). All viability assays were performed in duplicate and Luminescence was read using an Envision (Perkin Elmer, USA). Data was analyzed using XLfit software.

[4] = tested on: A2780; test: A2780 viability assay (CellTiter-Glo, 72 hours); type: cell-based; conditions: Homo sapiens; A2780 cells
Method in brief: (§3)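 RPMI-1640/10% FBS; plate cells (MV4-11 1×10^4, OVCAR-3 5×10^3, A2780 1×10^3 per well); 24 h later add compound 0.0015–10 uM; 72 h, 37° C; CellTiter-Glo luminescence, duplicate wells.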

[5] = molecular target: T3, CDK1/Cyclin B (Homo sapiens, UniProt P06493); test: Enzymatic assay for CDK1 (LANCE Ultra kinase assay, FRET based); type: biochemical; conditions: ATP at Km; read-out: CDK1 enzymatic activity IC50
T3 construct: purchased Invitrogen PR4768C
Method in brief: as §1

[6] = tested on: OVCAR-3; test: OVCAR-3 viability assay (CellTiter-Glo, 72 hours); type: cell-based; conditions: Homo sapiens; OVCAR-3 cells
Method in brief: as §3

[7] = molecular target: T4, CDK2/Cyclin A (Homo sapiens, UniProt P24941); test: Enzymatic assay for CDK2 (LANCE Ultra kinase assay, FRET based); type: biochemical; conditions: ATP at Km
T4 construct: purchased Invitrogen PV6290
Method in brief: as §2

T3 sequence (P06493 whole entry): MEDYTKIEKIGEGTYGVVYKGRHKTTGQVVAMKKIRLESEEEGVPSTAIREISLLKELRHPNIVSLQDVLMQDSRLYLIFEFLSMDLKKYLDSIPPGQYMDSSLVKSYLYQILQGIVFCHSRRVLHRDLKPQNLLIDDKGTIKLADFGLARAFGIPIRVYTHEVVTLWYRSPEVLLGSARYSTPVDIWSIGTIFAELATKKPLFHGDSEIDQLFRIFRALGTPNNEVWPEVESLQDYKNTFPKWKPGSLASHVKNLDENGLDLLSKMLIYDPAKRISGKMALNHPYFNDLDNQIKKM
T3 sequence (P14635 whole entry partner): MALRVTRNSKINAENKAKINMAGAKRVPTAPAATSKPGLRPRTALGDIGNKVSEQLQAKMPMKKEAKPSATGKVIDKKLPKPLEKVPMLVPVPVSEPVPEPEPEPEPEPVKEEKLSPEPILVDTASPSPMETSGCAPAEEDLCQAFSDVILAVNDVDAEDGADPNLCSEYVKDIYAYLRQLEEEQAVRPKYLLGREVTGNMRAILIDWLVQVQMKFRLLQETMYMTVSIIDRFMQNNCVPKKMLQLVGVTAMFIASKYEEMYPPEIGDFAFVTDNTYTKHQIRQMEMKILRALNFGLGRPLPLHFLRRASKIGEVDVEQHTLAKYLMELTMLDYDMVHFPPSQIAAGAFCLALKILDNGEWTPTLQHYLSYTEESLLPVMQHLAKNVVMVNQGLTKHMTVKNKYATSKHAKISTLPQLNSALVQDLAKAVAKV
T2 sequence (Q00535 whole entry): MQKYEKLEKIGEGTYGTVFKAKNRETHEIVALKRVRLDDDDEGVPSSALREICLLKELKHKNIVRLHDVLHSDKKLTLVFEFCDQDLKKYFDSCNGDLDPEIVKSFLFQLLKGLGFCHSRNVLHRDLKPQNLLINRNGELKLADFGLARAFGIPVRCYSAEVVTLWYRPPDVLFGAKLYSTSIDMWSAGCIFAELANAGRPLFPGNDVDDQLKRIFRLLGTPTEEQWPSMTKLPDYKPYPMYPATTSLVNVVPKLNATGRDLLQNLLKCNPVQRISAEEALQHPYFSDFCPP
T2 sequence (Q15078 99-307 partner limits assumed): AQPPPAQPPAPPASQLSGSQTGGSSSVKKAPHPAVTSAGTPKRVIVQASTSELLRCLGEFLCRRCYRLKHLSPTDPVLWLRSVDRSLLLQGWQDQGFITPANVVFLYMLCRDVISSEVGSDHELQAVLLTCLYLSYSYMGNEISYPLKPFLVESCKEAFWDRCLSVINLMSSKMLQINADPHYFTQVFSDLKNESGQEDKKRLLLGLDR
T1 sequence (P50613 whole entry): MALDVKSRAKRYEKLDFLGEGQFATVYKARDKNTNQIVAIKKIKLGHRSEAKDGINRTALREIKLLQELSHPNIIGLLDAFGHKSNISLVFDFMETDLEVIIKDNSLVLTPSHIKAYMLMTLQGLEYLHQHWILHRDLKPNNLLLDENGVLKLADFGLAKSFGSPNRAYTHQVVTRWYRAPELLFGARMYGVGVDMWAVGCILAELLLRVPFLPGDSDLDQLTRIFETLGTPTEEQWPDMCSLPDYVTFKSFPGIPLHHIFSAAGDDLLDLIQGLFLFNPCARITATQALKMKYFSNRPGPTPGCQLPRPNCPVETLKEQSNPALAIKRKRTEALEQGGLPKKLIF
T1 sequence (P51946 whole entry partner): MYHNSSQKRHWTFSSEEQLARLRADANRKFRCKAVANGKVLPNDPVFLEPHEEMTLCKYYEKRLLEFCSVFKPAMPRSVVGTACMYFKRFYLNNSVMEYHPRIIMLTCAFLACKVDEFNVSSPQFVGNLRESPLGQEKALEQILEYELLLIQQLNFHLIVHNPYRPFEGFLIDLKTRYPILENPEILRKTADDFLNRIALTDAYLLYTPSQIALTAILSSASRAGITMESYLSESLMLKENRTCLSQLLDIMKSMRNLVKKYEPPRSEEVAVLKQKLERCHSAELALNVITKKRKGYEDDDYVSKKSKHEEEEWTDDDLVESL
T1 sequence (P51948 whole entry partner): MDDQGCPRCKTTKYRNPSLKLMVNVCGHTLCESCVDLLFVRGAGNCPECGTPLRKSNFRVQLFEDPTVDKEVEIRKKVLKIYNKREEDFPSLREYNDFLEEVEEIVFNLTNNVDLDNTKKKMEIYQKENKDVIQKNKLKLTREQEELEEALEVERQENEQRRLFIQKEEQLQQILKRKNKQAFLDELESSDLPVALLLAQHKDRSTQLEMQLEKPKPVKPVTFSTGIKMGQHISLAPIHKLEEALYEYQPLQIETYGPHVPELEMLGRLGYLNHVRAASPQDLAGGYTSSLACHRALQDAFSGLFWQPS

SMILES: CC(C)c1cnn2c(NCc3ccccc3-c3nccc4cc(NC(=O)/C=C/CN(C)C)ccc34)nc(NCC3CCOCC3)nc12 [Compound 43]
IC50 [1]: 100 to 1000 nM
CDK1/CDK7: Selectivity of CDK7 inhibition over CDK1 inhibition [1]: B (B indicates 50 < [fold] ≤ 500)
CDK2/CDK7: Selectivity of CDK7 inhibition over CDK2 inhibition [1]: B (B indicates 50 < [fold] ≤ 500)
CDK5/CDK7: Selectivity of CDK7 inhibition over CDK5 inhibition [1]: B (B indicates 50 < [fold] ≤ 500)
IC50 [2]: > 1000 nM
IC50 [3]: < 1000 nM
IC50 [4]: < 1000 nM
IC50 [5]: > 1000 nM
IC50 [6]: < 1000 nM
IC50 [7]: > 1000 nM

SMILES: CC(C)c1cnn2c(NCc3ccccc3-c3nccc4cc(NC(=O)/C=C/CN(C)C)ccc34)nc(NCC3CNCCO3)nc12 (racemic) [Compound 62]
IC50 [1]: < 100 nM
CDK1/CDK7: Selectivity of CDK7 inhibition over CDK1 inhibition [1]: A (A indicates [fold] > 500)
CDK2/CDK7: Selectivity of CDK7 inhibition over CDK2 inhibition [1]: A (A indicates [fold] > 500)
CDK5/CDK7: Selectivity of CDK7 inhibition over CDK5 inhibition [1]: A (A indicates [fold] > 500)
IC50 [2]: > 1000 nM
IC50 [3]: < 1000 nM
IC50 [4]: < 1000 nM
IC50 [5]: > 1000 nM
IC50 [6]: < 1000 nM
IC50 [7]: > 1000 nM

SMILES: CC(C)c1cnn2c(NCc3ccccc3-c3nccc4cc(NC(=O)/C=C/CN(C)C)ccc34)nc(N3CCC(N(C)C)CC3)nc12 [Compound 39]
IC50 [1]: < 100 nM
CDK1/CDK7: Selectivity of CDK7 inhibition over CDK1 inhibition [1]: A (A indicates [fold] > 500)
CDK2/CDK7: Selectivity of CDK7 inhibition over CDK2 inhibition [1]: A (A indicates [fold] > 500)
CDK5/CDK7: Selectivity of CDK7 inhibition over CDK5 inhibition [1]: B (B indicates 50 < [fold] ≤ 500)
IC50 [2]: > 1000 nM
IC50 [3]: < 1000 nM
IC50 [4]: < 1000 nM
IC50 [5]: > 1000 nM
IC50 [6]: < 1000 nM
IC50 [7]: > 1000 nM

SMILES: C=C(C)C(=O)Nc1ccc2c(-c3ccccc3CNc3nc(NC[C@H]4CCNC[C@@H]4O)nc4c(C(C)C)cnn34)nccc2c1 [Compound 66]
IC50 [1]: < 100 nM
CDK1/CDK7: Selectivity of CDK7 inhibition over CDK1 inhibition [1]: A (A indicates [fold] > 500)
CDK2/CDK7: Selectivity of CDK7 inhibition over CDK2 inhibition [1]: A (A indicates [fold] > 500)
CDK5/CDK7: Selectivity of CDK7 inhibition over CDK5 inhibition [1]: A (A indicates [fold] > 500)
IC50 [2]: > 1000 nM
IC50 [3]: < 1000 nM
IC50 [4]: < 1000 nM
IC50 [5]: > 1000 nM
IC50 [6]: < 1000 nM
IC50 [7]: > 1000 nM

SMILES: CC#CC(=O)Nc1ccc2c(-c3ccccc3CNc3nc(N4CCC(N)CC4)nc4c(C(C)C)cnn34)nccc2c1 [Compound 47]
IC50 [1]: < 100 nM
CDK1/CDK7: Selectivity of CDK7 inhibition over CDK1 inhibition [1]: A (A indicates [fold] > 500)
CDK2/CDK7: Selectivity of CDK7 inhibition over CDK2 inhibition [1]: A (A indicates [fold] > 500)
CDK5/CDK7: Selectivity of CDK7 inhibition over CDK5 inhibition [1]: B (B indicates 50 < [fold] ≤ 500)
IC50 [2]: > 1000 nM
IC50 [3]: < 1000 nM
IC50 [4]: < 1000 nM
IC50 [5]: > 1000 nM
IC50 [6]: < 1000 nM
IC50 [7]: > 1000 nM

SMILES: CC(C)c1cnn2c(NCc3ccccc3-c3nccc4cc(NC(=O)/C=C/CN(C)C)ccc34)nc(NC[C@H]3CC[C@H](O)CC3)nc12 [Compound 33]
IC50 [1]: 100 to 1000 nM
CDK1/CDK7: Selectivity of CDK7 inhibition over CDK1 inhibition [1]: B (B indicates 50 < [fold] ≤ 500)
CDK2/CDK7: Selectivity of CDK7 inhibition over CDK2 inhibition [1]: B (B indicates 50 < [fold] ≤ 500)
CDK5/CDK7: Selectivity of CDK7 inhibition over CDK5 inhibition [1]: B (B indicates 50 < [fold] ≤ 500)
IC50 [2]: > 1000 nM
IC50 [3]: < 1000 nM
IC50 [4]: < 1000 nM
IC50 [5]: > 1000 nM
IC50 [6]: < 1000 nM
IC50 [7]: > 1000 nM

SMILES: CC(C)c1cnn2c(NCc3ccccc3-c3nccc4cc(NC(=O)/C=C/CN(C)C)ccc34)nc(N3CCC(O)C3)nc12 (racemic) [Compound 37]
IC50 [1]: 100 to 1000 nM
CDK1/CDK7: Selectivity of CDK7 inhibition over CDK1 inhibition [1]: B (B indicates 50 < [fold] ≤ 500)
CDK2/CDK7: Selectivity of CDK7 inhibition over CDK2 inhibition [1]: B (B indicates 50 < [fold] ≤ 500)
CDK5/CDK7: Selectivity of CDK7 inhibition over CDK5 inhibition [1]: B (B indicates 50 < [fold] ≤ 500)
IC50 [2]: > 1000 nM
IC50 [3]: < 1000 nM
IC50 [4]: < 1000 nM
IC50 [5]: > 1000 nM
IC50 [6]: < 1000 nM
IC50 [7]: > 1000 nM

The remaining lines, values ahead:

IC50 [1]: < 100 nM
CDK1/CDK7: Selectivity of CDK7 inhibition over CDK1 inhibition [1]: A (A indicates [fold] > 500)
CDK2/CDK7: Selectivity of CDK7 inhibition over CDK2 inhibition [1]: A (A indicates [fold] > 500)
CDK5/CDK7: Selectivity of CDK7 inhibition over CDK5 inhibition [1]: A (A indicates [fold] > 500)
IC50 [2]: > 1000 nM
IC50 [3]: < 1000 nM
IC50 [4]: < 1000 nM
IC50 [5]: > 1000 nM
IC50 [6]: < 1000 nM
IC50 [7]: > 1000 nM
SMILES: CC(C)c1cnn2c(NCc3ccccc3-c3nccc4cc(NC(=O)C5=CCCC5)ccc34)nc(NC[C@H]3CCNC[C@@H]3O)nc12 [Compound 65]

IC50 [1]: < 100 nM
CDK1/CDK7: Selectivity of CDK7 inhibition over CDK1 inhibition [1]: B (B indicates 50 < [fold] ≤ 500)
CDK2/CDK7: Selectivity of CDK7 inhibition over CDK2 inhibition [1]: B (B indicates 50 < [fold] ≤ 500)
CDK5/CDK7: Selectivity of CDK7 inhibition over CDK5 inhibition [1]: B (B indicates 50 < [fold] ≤ 500)
IC50 [2]: 100 to 1000 nM
IC50 [3]: < 1000 nM
IC50 [4]: < 1000 nM
IC50 [5]: > 1000 nM
IC50 [6]: < 1000 nM
IC50 [7]: > 1000 nM
SMILES: C/C=C/C(=O)Nc1ccc2c(ccn2-c2ccccc2CNc2nc(NC[C@H]3CCNC[C@@H]3O)nc3c(C(C)C)cnn23)c1 [Compound 74]

IC50 [1]: < 100 nM
CDK1/CDK7: Selectivity of CDK7 inhibition over CDK1 inhibition [1]: B (B indicates 50 < [fold] ≤ 500)
CDK2/CDK7: Selectivity of CDK7 inhibition over CDK2 inhibition [1]: B (B indicates 50 < [fold] ≤ 500)
CDK5/CDK7: Selectivity of CDK7 inhibition over CDK5 inhibition [1]: B (B indicates 50 < [fold] ≤ 500)
IC50 [2]: > 1000 nM
IC50 [3]: < 1000 nM
IC50 [4]: < 1000 nM
IC50 [5]: > 1000 nM
IC50 [6]: < 1000 nM
IC50 [7]: > 1000 nM
SMILES: C/C=C/C(=O)Nc1ccc2c(-c3ccccc3CNc3nc(N4CCNCC4)nc4c(C(C)C)cnn34)nccc2c1 [Compound 71]

IC50 [1]: < 100 nM
CDK1/CDK7: Selectivity of CDK7 inhibition over CDK1 inhibition [1]: A (A indicates [fold] > 500)
CDK2/CDK7: Selectivity of CDK7 inhibition over CDK2 inhibition [1]: A (A indicates [fold] > 500)
CDK5/CDK7: Selectivity of CDK7 inhibition over CDK5 inhibition [1]: A (A indicates [fold] > 500)
IC50 [2]: > 1000 nM
IC50 [3]: < 1000 nM
IC50 [4]: < 1000 nM
IC50 [5]: > 1000 nM
IC50 [6]: < 1000 nM
IC50 [7]: > 1000 nM
SMILES: CC(C)c1cnn2c(NCc3ccccc3-c3nccc4cc(NC(=O)/C=C/CN(C)C)ccc34)nc(N3CCNCC3)nc12 [Compound 59]
